These results are taken from patent publication EP0430025A2, “Xanthine compound, method for preparing thereof, and a pharmaceutical composition comprising the same” (HOKURIKU PHARMACEUTICAL CO., LTD., priority 1989, dated 1991).

Each structure is given as a SMILES string.

The test system of series [1] is isolated guinea-pig atria. In words: Chronotropic activity in the isolated guinea-pig atrium (spontaneous beating rate of right atrium). The conditions noted are these: 15% increase of spontaneous beating rate of right atrium; cumulative addition; 30°C. Here is the method:
Male Hartley guinea-pig weighing about 500 g was sacrificed and the right atrium was removed. The atrium was mounted vertically in an organ bath containing Krebs-Henseleit solution. The bath medium was maintained at 30°C and was equilibrated with a gas mixture consisting of 95% 0₂ and 5% CO₂. A restintion of 0.5 g was applied. The spontaneous beating rates for the right atrium were recorded by using a heart rate counter. The test compounds were added cumulatively to the bath. ED₁₅ values representing the amount of the compound which produced 15% increases of the spontaneous beating rates for the right atria were caluculated on the basis of the results obtained.

For series [2], the system named is isolated dog mesenteric artery. In words: Relaxation activity in the isolated dog mesenteric artery (pre-contracted with prostaglandin F2α). The conditions noted are these: for EC50: Canis lupus familiaris, 50% of maximal relaxation (10⁻⁴M papaverine), pre-contracted with prostaglandin F₂α 3 × 10⁻⁶ M, 37°C, read-out: relaxation activity in the isolated dog mesenteric artery ED₅₀; for relative effectiveness of the compounds to reference B: dog mesenteric artery ED₅₀ relative to reference compound B (propentofylline) = 1. The method, then:
The mesenteric arteries were isolated from mongrel dogs of either sex weighing about 10kg. Each helical strip (2 mm in width and 20 mm in length) was mounted vertically in an organ bath containing Krebs-Henseleit solution. The bath medium was maintained at 37 °C and was equilibrated with a gas mixture consisting of 95% O₂ and 5% […]. A resting tension of 1.0 g was applied and the response was recorded isometrically. The preparations were pre-contracted with prostaglandin F₂ α (3 × 10⁻⁶ M) and the smooth muscle relaxations induced by the test compounds were recorded. The test compounds were added cumulatively to the bath. ED₅₀ values representing the amount of the compound which produces 50% relaxations of the maximal relaxations (10 ⁻⁴M papaverine) were caluculated on the basis of the results obtained above.

The test system of series [3] is isolated guinea-pig trachea. The series can be described thus: Relaxation activity in the isolated guinea-pig trachea (resting tonus, organ bath). Conditions: for EC50: Cavia porcellus, 50% of maximal relaxation (10⁻⁶M isoproterenol), resting tonus, cumulative addition, 37°C, read-out: relaxation activity in the isolated guinea-pig trachea ED₅₀; for relative effectiveness of the compounds to reference A: guinea-pig trachea ED₅₀ relative to reference compound A (theophylline) = 1. The method, then:
Male Hartley guinea-pigs weighing about 500 g were sacrificed and the trachea were removed. The tracheal chain strips were made and the preparations were mounted vertically in an organ bath containing Locke-Ringer solution. The bath medium was maintained at 37°C and was equilibrated with a gas mixture consisting of 95% O₂ and 5% CO₂. Relaxation activities of the test compounds on the resting tonus of the preparations were recorded isotonically. The test compounds were added cumulatively to the bath. ED₅₀ values representing the amount of the compound tested which produces 50% relaxations of the maximal relaxations (10⁻⁶M isoproterenol) were calculated on the basis of the results obtained above.

The test system of series [4] is complete cerebral ischemia in mice. In words: Protective effect on complete cerebral ischemia in mice (gasping duration after decapitation). It counts as in vivo. The conditions noted are these: 50 mg/kg, p.o., 30 minutes before decapitation; male ddY mice. The method, then:
Male ddY mice weighing about 25 g were used. Complete cerebral ischemia was produced by the amputation of the cervix between the medulla oblongata and the spinal cord. The time between decapitation and the last gasp was recorded as gasping duration. Test compounds were suspended with 0.5% carboxymethylcellulose except propentofylline which was dissolved in distilled H₂O, and then administered orally 30 minutes before the decapitation. The gasping duration was evaluated at the dose of 50 mg/kg.

For the compound `CC(=O)Cn1c(=O)c2c(ncn2C)n(C2CC2)c1=O` [Example 3, 3-Cyclopropyl-3,7-dihydro-7-methyl-1-(2-oxopropyl)-1H-purine-2,6-dione], the “chronotropic activity in the isolated guinea-pig atria ED₁₅” value (from here on “chronotropic activity”) in series [1] was above 10 × 10⁻⁵ M.
With `CC(=O)CCCCn1c(=O)c2c(ncn2C)n(C2CC2)c1=O` [Example 6, 3-Cyclopropyl-3,7-dihydro-7-methyl-1-(5-oxohexyl)-1H-purine-2,6-dione], the “chronotropic activity” value in series [1] is on record as above 10 × 10⁻⁵ M. Besides, in series [2], the EC50 worked out at 15 µM and the “relative effectiveness of the compounds to reference B” value is reported as 2.5.
In the case of `CCCCn1cnc2c1c(=O)n(CCCCC(C)=O)c(=O)n2C1CC1` [Example 15, 7-n-Butyl-3-cyclopropyl-3,7-dihydro-1-(5-oxohexyl)-1H-purine-2,6-dione], in series [3], the EC50 was 18 µM and the “relative effectiveness of the compounds to reference A” value came to 1.6. For the same compound, the “protective effect on complete cerebral iscehemia in mice gasping duration” value (shortened to “protective effect”) in series [4] turned out to be 112.3%. For the same compound, in series [1], the “chronotropic activity” value was above 10 × 10⁻⁵ M. In addition, in series [2], the EC50 came out at 36 µM and the “relative effectiveness of the compounds to reference B” value is listed as 1.1.
`CCCCCn1cnc2c1c(=O)n(CCCCC(C)=O)c(=O)n2C1CC1` [Example 16, 3-Cyclopropyl-3,7-dihydro-1-(5-oxohexyl)-7-n-pentyl-1H-purine-2,6-dione]: in series [3], the EC50 amounted to 23 µM and the “relative effectiveness of the compounds to reference A” value is recorded as 1.2. Also, the “protective effect” value in series [4] was 107.8%. In addition, in series [1], the “chronotropic activity” value was above 10 × 10⁻⁵ M.
Take `CCCCCCn1cnc2c1c(=O)n(CCCCC(C)=O)c(=O)n2C1CC1` [Example 17, 3-Cyclopropyl-7-n-hexyl-3,7-dihydro-1-(5-oxohexyl)-1H-purine-2,6-dione]: in series [3], the EC50 was 11 µM and the “relative effectiveness of the compounds to reference A” value was found to be 2.5. The “protective effect” value in series [4] amounted to 106.8%. The “chronotropic activity” value in series [1] is reported as above 10 × 10⁻⁵ M. For the same compound, in series [2], the EC50 was 18 µM and the “relative effectiveness of the compounds to reference B” value is 2.1.
Consider `CC(=O)CCCCn1cnc2c1c(=O)n(C)c(=O)n2C1CC1` [Example 25, 3-Cyclopropyl-3,7-dihydro-1-methyl-7-(5-oxohexyl)-1H-purine-2,6-dione], for which the “chronotropic activity” value in series [1] is recorded as above 10 × 10⁻⁵ M.
With `CCn1c(=O)c2c(ncn2CC(C)=O)n(C2CC2)c1=O` [Example 26, 3-Cyclopropyl-1-ethyl-3,7-dihydro-7-(2-oxopropyl)-1H-purine-2,6-dione], in series [3], the EC50 was found to be 14 µM and the “relative effectiveness of the compounds to reference A” value is recorded as 2.0. In addition, in series [2], the EC50 is 10 µM and the “relative effectiveness of the compounds to reference B” value came to 3.8.
`CCCCn1c(=O)c2c(ncn2CC(C)=O)n(C2CC2)c1=O` [Example 30, 1-n-Butyl-3-cyclopropyl-3,7-dihydro-7-(2-oxopropyl)-1H-purine-2,6-dione]: in series [3], the EC50 amounted to 1.5 µM and the “relative effectiveness of the compounds to reference A” value was 19. In addition, the “chronotropic activity” value in series [1] was above 10 × 10⁻⁵ M. In series [2], the EC50 amounted to 0.56 µM and the “relative effectiveness of the compounds to reference B” value came out at 68.
Consider `CCCCCCn1c(=O)c2c(ncn2CC(C)=O)n(C2CC2)c1=O` [Example 34, 3-Cyclopropyl-1-n-hexyl-3,7-dihydro-7-(2-oxopropyl)-1H-purine-2,6-dione], for which, in series [3], the EC50 was determined as 6 µM and the “relative effectiveness of the compounds to reference A” value is 4.7. Moreover, the “chronotropic activity” value in series [1] is given as above 10 × 10⁻⁵ M. In series [2], the EC50 was determined as 0.64 µM and the “relative effectiveness of the compounds to reference B” value amounted to 59.
Take `Cn1cnc2c1c(=O)n(CCCCC1(C)OCCO1)c(=O)n2C1CC1` [Example 38, 3-Cyclopropyl-3,7-dihydro7-methyl-1-[4-(2-methyl-1,3-dioxolan-2-yl)butyl]-1H-purine-2,6-dione]: in series [1], the “chronotropic activity” value is above 10 × 10⁻⁵ M.
For `CCCCn1c(=O)c2c(ncn2CC2(C)OCCO2)n(C2CC2)c1=O` [Example 40, 1-n-Butyl-3-cyclopropyl-3,7-dihydro-7-[(2-methyl-1,3-dioxolan-2-yl)methyl]-1H-purine-2,6-dione], in series [3], the EC50 came out at 16 µM and the “relative effectiveness of the compounds to reference A” value came out at 1.8. Besides, the “chronotropic activity” value in series [1] is given as above 10 × 10⁻⁵ M.
Regarding `Cn1c(=O)c2[nH]cnc2n(C)c1=O` [Reference compound A, theophylline, reference compound], in series [3], the EC50 came to 28 µM and the “relative effectiveness of the compounds to reference A” value was 1. Besides, in series [1], the “chronotropic activity” value is reported as 7.6 × 10⁻⁵ M.
Regarding `CCCn1cnc2c1c(=O)n(CCCCC(C)=O)c(=O)n2C` [Reference compound B, propentofylline, reference compound], the “protective effect” value in series [4] was found to be 106.4%. In addition, the “chronotropic activity” value in series [1] is on record as 5.1 × 10⁻⁵ M. Also, in series [2], the EC50 is 38 µM and the “relative effectiveness of the compounds to reference B” value stood at 1.
